Patent publication US10633419B2, “Immunomodulators” (BRISTOL-MYERS SQUIBB COMPANY, priority 2014, dated 2020)
Starred links: 1 amine or outer side, 2 acyl side, 3 side chain; linkers in the order of their positions; H or OH if unused. Positions of bridges follow the written chain, without caps; N, C: chain ends. Non-standard residues stand in square brackets, D forms with d. Residues, ends and D or L forms follow the SMILES beside them. *: point of attachment. X29 = O=C(O)CCCCCCCCCCCCCCCCC(=O)N[C@H](CCC(=O)NCCCC[C@@H](NC(=O)NCC(=O)[C@H](CSCC(=O)[*:1])N[*:2])C(=O)O)C(=O)O; Dap(Nα-HOOC(CH2)16CO)OH = O=C(O)CCCCCCCCCCCCCCCCC(=O)N[C@@H](CN*)C(=O)O; Ala(1-CH2COOH-inden-3-yl) = N[C@@H](CC1=CC(CC(=O)O)c2ccccc21)C(=O)O; Trp(1-CH2COOH) = N[C@@H](Cc1cn(CC(=O)O)c2ccccc12)C(=O)O; X9 = O=C(O)CCCCCCCCCCCCCCCCC(=O)N[C@@H](CCN*)C(=O)O; C16 diacid = O=C(O)CCCCCCCCCCCCCCC(=O)*; NH(CH2)12COOH = O=C(O)CCCCCCCCCCCCN*; Palmitoyl = CCCCCCCCCCCCCCCC(=O)*; Hyp = O=C(O)[C@@H]1C[C@@H](O)CN1; Undecanoyl = CCCCCCCCCCC(=O)*; NMeNle = CCCC[C@H](NC)C(=O)O; Pip = O=C(O)[C@@H]1CCCCN1; NMeA = CN[C@@H](C)C(=O)O; Pra = C#CC[C@H](N)C(=O)O; Aun = NCCCCCCCCCCC(=O)O; Dab = NCC[C@H](N)C(=O)O; Dap = NC[C@H](N)C(=O)O

Molecular target: T1, PD-L1 (Homo sapiens, UniProt Q9NZQ7)
T1 construct: hPDL1(19-239)-TVMV-His; made in house; host or cells: HEK293T
T1 sequence (Q9NZQ7 with tags, fused parts or gaps): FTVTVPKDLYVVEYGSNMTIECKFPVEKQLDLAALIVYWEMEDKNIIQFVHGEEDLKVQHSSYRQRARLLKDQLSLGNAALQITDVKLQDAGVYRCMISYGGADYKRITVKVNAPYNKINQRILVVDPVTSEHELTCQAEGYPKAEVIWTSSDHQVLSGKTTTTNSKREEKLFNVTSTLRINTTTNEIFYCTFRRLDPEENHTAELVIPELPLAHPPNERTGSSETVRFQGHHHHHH
Test: PD-1/PD-L1 Homogenous Time-Resolved Fluorescence (HTRF) binding assay (PD-1-Ig/PD-L1-His)
Conditions: inhibition of PD-1-Ig binding to PD-L1-TVMV-His; value given as range class; read-out: HTRF IC50
In short: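 HTRF competition in dPBS with 0.1% BSA and 0.05% Tween-20: 20 nM PD-1-Ig added after 15 min compound pre-incubation with 10 nM PD-L1-His, then another 15 min. Signal (665/620 nm) after 30 min with APC anti-His (20 nM) and Eu anti-Ig (1 nM).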

CCCCCCCCCCCCCCCC(=O)NCCCC[C@H](NC(=O)[C@H](CO)NC(=O)CNC(=O)CNC(=O)CNC(=O)CNC(=O)[C@@H]1CSCC(=O)N[C@@H](Cc2ccc(O)cc2)C(=O)N(C)[C@@H](C)C(=O)N[C@@H](CC(N)=O)C(=O)N2CCC[C@H]2C(=O)N[C@@H](CCN)C(=O)N[C@@H](CC(C)C)C(=O)N2C[C@H](O)C[C@H]2C(=O)N[C@@H](Cc2c[nH]c3ccccc23)C(=O)N[C@@H](CO)C(=O)N[C@@H](Cc2c[nH]c3ccccc23)C(=O)N(C)[C@@H](CCCC)C(=O)N(C)[C@@H](CCCC)C(=O)N[C@@H](CCCNC(=N)N)C(=O)N1)C(N)=O [Example 11022] ({CH2CO}-Y[NMeA]NP[Dab]L[Hyp]WSW[NMeNle][NMeNle]RCGGGGSK(Palmitoyl)-NH2; thioether N-14)
IC50: 100 to 1600 nM

CCCC[C@H]1C(=O)N(C)[C@@H](CCCC)C(=O)N[C@@H](CC(C)C)C(=O)N[C@H](C(=O)NCC(=O)N[C@@H](CC(=O)O)C(=O)NCC(=O)NCCCCCCCCCCCCC(=O)O)CSCC(=O)N[C@@H](Cc2ccc(O)cc2)C(=O)N(C)[C@@H](C)C(=O)N[C@@H](CC(N)=O)C(=O)N2CCC[C@H]2C(=O)N[C@@H](CN)C(=O)N[C@@H](CC(C)C)C(=O)N2C[C@H](O)C[C@H]2C(=O)N[C@@H](Cc2c[nH]c3ccccc23)C(=O)N[C@@H](CCN)C(=O)N[C@@H](Cc2cn(CC(=O)O)c3ccccc23)C(=O)N1C [Example 11223] ({CH2CO}-Y[NMeA]NP[Dap]L[Hyp]W[Dab][Trp(1-CH2COOH)][NMeNle][NMeNle]LCGDG-{NH(CH2)12COOH}; thioether N-14)
IC50: 10 to 99 nM

CCCC[C@H]1C(=O)N(C)[C@@H](CCCC)C(=O)N[C@@H](CC(C)C)C(=O)N[C@H](C(=O)NCC(=O)N[C@@H](CCC(=O)NC[C@H](NC(=O)CCCCCCCCCCCCCCCCC(=O)O)C(=O)O)C(=O)O)CSCC(=O)N[C@@H](Cc2ccc(O)cc2)C(=O)N(C)[C@@H](C)C(=O)N[C@@H](CC(N)=O)C(=O)N2CCC[C@H]2C(=O)N[C@@H](CN)C(=O)N[C@@H](CC(C)C)C(=O)N2C[C@H](O)C[C@H]2C(=O)N[C@@H](Cc2c[nH]c3ccccc23)C(=O)N[C@@H](CCN)C(=O)N[C@@H](Cc2cn(CC(=O)O)c3ccccc23)C(=O)N1C [Example 11173] ({CH2CO}-Y[NMeA]NP[Dap]L[Hyp]W[Dab][Trp(1-CH2COOH)][NMeNle][NMeNle]LCGE(Dap(Nα-HOOC(CH2)16CO)OH)-OH; thioether N-14)
IC50: 100 to 1600 nM

CCCCCCCCCCC(=O)NCCCC[C@H](NC(=O)[C@H](CC(=O)O)NC(=O)[C@@H]1CSCC(=O)N[C@@H](Cc2ccc(O)cc2)C(=O)N(C)[C@@H](C)C(=O)N[C@@H](CC(N)=O)C(=O)N2CCC[C@H]2C(=O)N[C@@H](Cc2cnc[nH]2)C(=O)N[C@@H](CCC(=O)O)C(=O)N2C[C@H](O)C[C@H]2C(=O)N[C@@H](Cc2c[nH]c3ccccc23)C(=O)N[C@@H](CCN)C(=O)N[C@@H](Cc2cn(CC(=O)O)c3ccccc23)C(=O)N(C)[C@@H](CCCC)C(=O)N(C)[C@@H](CCCC)C(=O)N[C@@H](CC(C)C)C(=O)N1)C(N)=O [Example 11011] ({CH2CO}-Y[NMeA]NPHE[Hyp]W[Dab][Trp(1-CH2COOH)][NMeNle][NMeNle]LCDK(Undecanoyl)-NH2; thioether N-14)
IC50: 10 to 99 nM

CCCC[C@H]1C(=O)N(C)[C@@H](CCCC)C(=O)N[C@@H](CCC(=O)O)C(=O)N[C@H](C(=O)NCC(=O)N[C@@H](Cc2cn(CC[C@H](NC(=O)CCCCCCCCCCCCCCC(=O)O)C(=O)O)nn2)C(=O)NCC(N)=O)CSCC(=O)N[C@@H](Cc2ccc(O)cc2)C(=O)N(C)[C@@H](C)C(=O)N[C@@H](CC(=O)O)C(=O)N2CCC[C@H]2C(=O)N[C@@H](Cc2c[nH]cn2)C(=O)N[C@@H](CCC(N)=O)C(=O)N2C[C@H](O)C[C@H]2C(=O)N[C@@H](Cc2c[nH]c3ccccc23)C(=O)N[C@@H](CO)C(=O)N[C@@H](Cc2c[nH]c3ccccc23)C(=O)N1C [Example 14069]
IC50: 10 to 99 nM

CCCC[C@H]1C(=O)N(C)[C@@H](CCCC)C(=O)N[C@@H](CC(C)C)C(=O)N[C@H](C(=O)NCC(=O)N[C@@H](CCC(=O)NCC[C@H](NC(=O)CCCCCCCCCCCCCCCCC(=O)O)C(=O)O)C(=O)O)CSCC(=O)N[C@@H](Cc2ccc(O)cc2)C(=O)N2CCCC[C@H]2C(=O)N[C@@H](CC(N)=O)C(=O)N2CCC[C@H]2C(=O)N[C@@H](CN)C(=O)N[C@@H](CC(C)C)C(=O)N2C[C@H](O)C[C@H]2C(=O)N[C@@H](Cc2c[nH]c3ccccc23)C(=O)N[C@@H](CCN)C(=O)N[C@@H](Cc2cn(CC(=O)O)c3ccccc23)C(=O)N1C [Example 13143] ({CH2CO}-Y[Pip]NP[Dap]L[Hyp]W[Dab][Trp(1-CH2COOH)][NMeNle][NMeNle]LCGE(X9)-OH; thioether N-14)
IC50: 100 to 1600 nM

C#CC[C@H](NC(=O)CNC(=O)CNC(=O)[C@@H]1CSCC(=O)N[C@@H](Cc2ccc(O)cc2)C(=O)N(C)[C@@H](C)C(=O)N[C@@H](CC(N)=O)C(=O)N2CCC[C@H]2C(=O)N[C@@H](CN)C(=O)N[C@@H](CC(C)C)C(=O)N2C[C@H](O)C[C@H]2C(=O)N[C@@H](Cc2c[nH]c3ccccc23)C(=O)N[C@@H](CCN)C(=O)N[C@@H](Cc2cn(CC(=O)O)c3ccccc23)C(=O)N(C)[C@@H](CCCC)C(=O)N(C)[C@@H](CCCC)C(=O)N[C@@H](CC(C)C)C(=O)N1)C(=O)O [INT130AA] ({CH2CO}-Y[NMeA]NP[Dap]L[Hyp]W[Dab][Trp(1-CH2COOH)][NMeNle][NMeNle]LCGG[Pra]-OH; thioether N-14)
IC50: 10 to 99 nM

CCCC[C@H]1C(=O)N(C)[C@@H](CCCC)C(=O)N[C@@H](CC(C)C)C(=O)N[C@H](C(=O)CNC(=O)N[C@H](CCCCNC(=O)CC[C@@H](NC(=O)CCCCCCCCCCCCCCCCC(=O)O)C(=O)O)C(=O)O)CSCC(=O)N[C@@H](Cc2ccc(O)cc2)C(=O)N(C)[C@@H](C)C(=O)N[C@@H](CC(N)=O)C(=O)N2CCC[C@H]2C(=O)N[C@@H](CN)C(=O)N[C@@H](CC(C)C)C(=O)N2C[C@H](O)C[C@H]2C(=O)N[C@@H](Cc2c[nH]c3ccccc23)C(=O)N[C@@H](CCN)C(=O)N[C@@H](Cc2cn(CC(=O)O)c3ccccc23)C(=O)N1C [Example 11134] (Y[NMeA]NP[Dap]L[Hyp]W[Dab][Trp(1-CH2COOH)][NMeNle][NMeNle]L; linker N-C via X29)
IC50: 10 to 99 nM

CCCC[C@H]1C(=O)N(C)[C@@H](CCCC)C(=O)N[C@@H](CCCNC(=N)N)C(=O)N[C@H](C(=O)NCC(=O)NCC(=O)N[C@@H](CC(=O)O)C(=O)N[C@@H](CCCCNC(=O)CCCCCCCCCCCCCCC(=O)O)C(N)=O)CSCC(=O)N[C@@H](Cc2ccc(O)cc2)C(=O)N(C)[C@@H](C)C(=O)N[C@@H](CC(=O)O)C(=O)N2CCC[C@H]2C(=O)N[C@@H](Cc2cnc[nH]2)C(=O)N[C@@H](CC(C)C)C(=O)N2C[C@H](O)C[C@H]2C(=O)N[C@@H](Cc2c[nH]c3ccccc23)C(=O)N[C@@H](CO)C(=O)N[C@@H](Cc2c[nH]c3ccccc23)C(=O)N1C [Example 11126] ({CH2CO}-Y[NMeA]DPHL[Hyp]WSW[NMeNle][NMeNle]RCGGDK(C16 diacid)-NH2; thioether N-14)
IC50: 10 to 99 nM

CCCC[C@H]1C(=O)N(C)[C@@H](CCCC)C(=O)N[C@@H](CC(C)C)C(=O)N[C@H](C(=O)NCCCCCCCCCCC(=O)O)CSCC(=O)N[C@@H](Cc2ccc(O)cc2)C(=O)N(C)[C@@H](C)C(=O)N[C@@H](CC(N)=O)C(=O)N2CCC[C@H]2C(=O)N[C@@H](Cc2cnc[nH]2)C(=O)N[C@@H](CCC(=O)O)C(=O)N2C[C@H](O)C[C@H]2C(=O)N[C@@H](Cc2c[nH]c3ccccc23)C(=O)N[C@@H](CCN)C(=O)N[C@@H](CC2=CC(CC(=O)O)c3ccccc32)C(=O)N1C (stereo partly shown) [Example 11076] ({CH2CO}-Y[NMeA]NPHE[Hyp]W[Dab][Ala(1-CH2COOH-inden-3-yl)][NMeNle][NMeNle]LC[Aun]-OH; thioether N-14)
IC50: 10 to 99 nM
